These results are taken from patent EP3708565A1, “PYRIMIDINYLOXYPHENYLAMIDINES AND THE USE THEREOF AS FUNGICIDES” (Bayer AG, priority 2020, dated 2020).

Data set [1] relates to Phakospora pachyrhizi. The data set is described as follows: in vivo preventive test on Phakospora pachyrhizi (soybean rust). Particulars: for pest or weed control at 500 ppm: Glycine max, 288 h, 500 ppm of active ingredient, young soybean plants sprayed, inoculated after 24 hours, evaluated 12 days after the inoculation, read-out: efficacy; for efficacy: 500 ppm. As to the method: Example: in vivo preventive test on Phakospora pachyrhizi (soybean rust)
(§1) The active ingredients were made soluble and homogenized in a mixture of Dimethyl sulfoxide/Acetone/ /Tween® 80 and then diluted in water to the desired concentration.
The young plants of soybean were treated by spraying the active ingredient prepared as described above. Control plants were treated only with an aqueous solution of Acetone/Dimethyl sulfoxide/ […].
After 24 hours, the plants were contaminated by spraying the leaves with an aqueous suspension of Phakosporapachyrhizi spores. The contaminated soybean plants were incubated for 24 hours at 24°C and at 100% relative humidity and then for 11 days at 24°C and at 70-80% relative humidity.
The test was evaluated 12 days after the inoculation. 0% means an efficacy which corresponds to that of the control plants while an efficacy of 100% means that no disease was observed.

Data set [2] can be described thus: LogP measurement by HPLC on reversed phase columns (EEC directive 79/831 Annex V.A8). Type of data set: physicochemical. As to the method: If more than one LogP value is available within the same method, all the values are given and separated by "+".
Lambda-max-values were determined using UV-spectra from 200 nm to 400 nm and the peak values of the chromatographic signals.

In data set [3] the test system is Puccinia recondita. The experiment in a line: in vivo preventive test on Puccinia recondita (brown rust on wheat). Particulars: for pest or weed control at 500 ppm: Puccinia recondita, 264 h, 500 ppm of active ingredient, young wheat plants sprayed, inoculated after 24 hours, evaluated 11 days after the inoculation, read-out: efficacy; for efficacy: 500 ppm. As to the method:
Example: in vivo preventive test on Puccinia recondita (brown rust on wheat)
as §1
The young plants of wheat were treated by spraying the active ingredient prepared as described above. Control plants were treated only with an aqueous solution of Acetone/Dimethyl sulfoxide/ Tween® 80.
After 24 hours, the plants were contaminated by spraying the leaves with an aqueous suspension of Puccinia recondita spores. The contaminated wheat plants were incubated for 24 hours at 20°C and at 100% relative humidity and then for 10 days at 20°C and at 70-80% relative humidity.
The test was evaluated 11 days after the inoculation. 0% means an efficacy which corresponds to that of the control plants while an efficacy of 100% means that no disease was observed.

The subject of data set [4] is Sphaerotheca fuliginea. The data set is described as follows: in vivo preventive test on Sphaerotheca fuliginea (powdery mildew on cucurbits). Conditions: 500 ppm of active ingredient, young gherkin plants sprayed, inoculated after 24 hours, evaluated 8 days after the inoculation; for pest or weed control at 500 ppm: Podosphaera fuliginea, 192 h, read-out: efficacy. As to the method:
Example: in vivo preventive test on Sphaerotheca fuliginea (powdery mildew on cucurbits)
as §1
The young plants of gherkin were treated by spraying the active ingredient prepared as described above. Control plants were treated only with an aqueous solution of Acetone/Dimethyl sulfoxide/ […].
After 24 hours, the plants were contaminated by spraying the leaves with an aqueous suspension of Sphaerotheca fuliginea spores. The contaminated gherkin plants were incubated for 8 days at 20°C and at 70-80% relative humidity.
The test was evaluated 8 days after the inoculation. 0% means an efficacy which corresponds to that of the control plants while an efficacy of 100% means that no disease was observed.

The mark [5] stands for this setting: reversed phase HPLC column, method [a]: LC-UV, acidic range, 0.1% formic acid in water and acetonitrile as eluent.
Where [6] appears, read: reversed phase HPLC column, method [b]: LC-UV, neutral range, 0.001 molar ammonium acetate solution in water and acetonitrile as eluent.
Setting [7] is: method [a]: LC-UV, acidic range, 0.1% formic acid in water and acetonitrile as eluent.
Setting [8] is: method [b]: LC-UV, neutral range, 0.001 molar ammonium acetate solution in water and acetonitrile as eluent.

By chromatographic logP is commonly meant lipophilicity estimated from chromatographic retention. Lower therefore signals a more hydrophilic compound. As to `CCN(C)C=Nc1cc(C)c(Oc2ccnc(SCC(F)(F)F)n2)cc1Cl` [I.006, N'-[2-chloro-5-methyl-4-[2-(2,2,2-trifluoroethylsulfanyl)pyrimidin-4-yl]oxyphenyl]-N-ethyl-N-methylmethanimidamide], the pest or weed control at 500 ppm in data set [1], in data set [3] and in data set [4] was at least 70% each time. Moreover, the chromatographic logP came out at 1.53 in data set [2] (setting [5]) and 4.19 in data set [2] (setting [6]).

As for `CCCSc1nc(C)cc(Oc2cc(C)c(N=CN(C)CC)cc2C)n1` [I.020, N'-[2,5-dimethyl-4-(6-methyl-2-propylsulfanylpyrimidin-4-yl)oxyphenyl]-N-ethyl-N-methyl-methanimidamide], the pest or weed control at 500 ppm in data set [1], in data set [3] and in data set [4] was at least 70% in each case. The compound further came in with a chromatographic logP in data set [2] (setting [5]) of 1.69.

Take `CCCSc1nccc(Oc2cc(C)c(N=CN(C)CC)cc2C(F)F)n1` [I.036, N'-[5-(difluoromethyl)-2-methyl-4-(2-propylsulfanylpyrimidin-4-yl)oxyphenyl]-N-ethyl-N-methylmethanimidamide]: the pest or weed control at 500 ppm in data set [1], in data set [3] and in data set [4] was at least 70% each time. The compound further returned a chromatographic logP in data set [2] (setting [5]) of 1.55.

`CCN(C)C=Nc1cc(C)c(Oc2ccnc(SC(C)C)n2)cc1C` [I.028, N'-[2,5-dimethyl-4-(2-propan-2-ylsulfanylpyrimidin-4-yl)oxyphenyl]-N-ethyl-N-methylmethan-imidamide]: the pest or weed control at 500 ppm in data set [1], in data set [3] and in data set [4] was at least 70% throughout. The chromatographic logP in data set [2] (setting [5]) was found to be 1.45; in data set [2] (setting [6]), 4.54.

Regarding `CCN(C)C=Nc1cc(C)c(Oc2cc(C)nc(SCC(C)C)n2)cc1C` [I.021, N'-[2,5-dimethyl-4-[6-methyl-2-(2-methylpropylsulfanyl)pyrimidin-4-yl]oxyphenyl]-N-ethyl-N-methylmethanimidamide], the pest or weed control at 500 ppm in data set [1], in data set [3] and in data set [4] was at least 70% throughout. Also, the chromatographic logP in data set [2] (setting [5]) stood at 1.84.

On to `CCN(C)C=Nc1cc(Br)c(Oc2ccnc(C(F)(F)F)n2)cc1C` [I.017, N'-[5-bromo-2-methyl-4-[2-(trifluoromethyl)pyrimidin-4-yl]oxyphenyl]-N-ethyl-N-methyl-methanimidamide], for which the pest or weed control at 500 ppm in data set [1], in data set [3] and in data set [4] was at least 70% each time. The values for the chromatographic logP in data set [2] (setting [5]) and in data set [2] (setting [6]) were 1.32 and 4.08, respectively.

As for `CCN(C)C=Nc1cc(Br)c(Oc2ccnc(SCC(F)(F)F)n2)cc1C` [I.005, N'-[5-bromo-2-methyl-4-[2-(2,2,2-trifluoroethylsulfanyl)pyrimidin-4-yl]oxyphenyl]-N-ethyl-N-methylmethanimidamide], the pest or weed control at 500 ppm in data set [1], in data set [3] and in data set [4] was at least 70% each time. Moreover, the chromatographic logP in data set [2] (setting [5]) stood at 1.58; in data set [2] (setting [6]), 4.66.

For the compound `CCN(C)C=Nc1cc(C)c(Oc2ccnc(SCCC(F)(F)F)n2)cc1C` [I.013, N'-[2,5-dimethyl-4-[2-(3,3,3-trifluoropropylsulfanyl)pyrimidin-4-yl]oxyphenyl]-N-ethyl-N-methylmethanimidamide], the pest or weed control at 500 ppm in data set [1], in data set [3] and in data set [4] was at least 70% each time. The chromatographic logP in data set [2] (setting [5]) turned out to be 1.58.

On to `CCN(C)C=Nc1cc(Br)c(Oc2ccnc(SC(C)C)n2)cc1C` [I.014, N'-[5-bromo-2-methyl-4-(2-propan-2-ylsulfanylpyrimidin-4-yl)oxyphenyl]-N-ethyl-N-methyl-methanimidamide], for which the pest or weed control at 500 ppm in data set [1], in data set [3] and in data set [4] was at least 70% in each case. For the same compound, the chromatographic logP is 1.6 in data set [2] (setting [5]) and 4.78 in data set [2] (setting [6]).

With `CCN(C)C=Nc1cc(C)c(Oc2ccnc(Sc3cccc(F)c3)n2)cc1C` [I.009, N-ethyl-N'-[4-[2-(3-fluorophenyl)sulfanylpyrimidin-4-yl]oxy-2,5-dimethylphenyl]-N-methyl-methanimidamide], the pest or weed control at 500 ppm in data set [1], in data set [3] and in data set [4] was at least 70% in each case. The compound also gave a chromatographic logP in data set [2] (setting [5]) of 1.66.

With `CCN(C)C=Nc1cc(C)c(Oc2ccnc(SCC[Si](C)(C)C)n2)cc1C` [I.043, N'-[2,5-dimethyl-4-[2-(2-trimethylsilylethylsulfanyl)pyrimidin-4-yl]oxyphenyl]-N-ethyl-N-methylmethanimidamide], the pest or weed control at 500 ppm in data set [1], in data set [3] and in data set [4] was at least 70% throughout. The compound also had a chromatographic logP in data set [2] (setting [7]) of 2.17.

For `CCN(C)C=Nc1cc(C)c(Oc2cc(C)nc(SC)n2)cc1C` [I.033, N'-[2,5-dimethyl-4-(6-methyl-2-methylsulfanylpyrimidin-4-yl)oxyphenyl]-N-ethyl-N-methyl-methanimidamide], the pest or weed control at 500 ppm in data set [1], in data set [3] and in data set [4] was at least 70% each time. Further, the results for the chromatographic logP in data set [2] (setting [5]) and in data set [2] (setting [6]) were 1.34 and 4.16, respectively.

Regarding `CCC(C)Sc1nccc(Oc2cc(C)c(N=CN(C)CC)cc2C)n1` (racemic) [I.004, N'-[2,5-dimethyl-4-[2-[rac-(2R)-butan-2-yl]sulfanylpyrimidin-4-yl]oxyphenyl]-N-ethyl-N-methylmethanimidamide], the pest or weed control at 500 ppm in data set [1], in data set [3] and in data set [4] was at least 70% throughout. For the same compound, the chromatographic logP in data set [2] (setting [5]) came out at 1.87.

As to `CCN(C)C=Nc1cc(C)c(Oc2ccnc(Sc3ccccc3F)n2)cc1C` [I.008, N-ethyl-N'-[4-[2-(2-fluorophenyl)sulfanylpyrimidin-4-yl]oxy-2,5-dimethylphenyl]-N-methyl-methanimidamide], the pest or weed control at 500 ppm in data set [1], in data set [3] and in data set [4] was at least 70% in each case. In addition, the chromatographic logP in data set [2] (setting [5]) was found to be 1.6.

With `CCN(C)C=Nc1cc(C(F)F)c(Oc2ccnc(SCC(C)C)n2)cc1C` [I.025, N'-[5-(difluoromethyl)-2-methyl-4-[2-(2-methylpropylsulfanyl)pyrimidin-4-yl]oxyphenyl]-N-ethyl-N-methylmethanimidamide], the pest or weed control at 500 ppm in data set [1], in data set [3] and in data set [4] was at least 70% in each case. The compound also had a chromatographic logP in data set [2] (setting [5]) of 1.69.

For `CCN(C)C=Nc1cc(C)c(Oc2ccnc(Sc3ccccc3)n2)cc1C` [I.039, N'-[2,5-dimethyl-4-(2-phenylsulfanylpyrimidin-4-yl)oxyphenyl]-N-ethyl-N-methylmethanimid-amide], the efficacy entry in data set [1], in data set [3] and in data set [4] was “at least 70%” in each case. Besides, the chromatographic logP was 1.52 in data set [2] (setting [7]) and 4.55 in data set [2] (setting [8]).

As to `CCSc1nccc(Oc2cc(C)c(N=CN(C)CC)cc2C)n1` [I.027, N-ethyl-N'-[4-(2-ethylsulfanylpyrimidin-4-yl)oxy-2,5-dimethylphenyl]-N-methylmethanimid-amide], the efficacy entry in data set [1], in data set [3] and in data set [4] was “at least 70%” in each case. Moreover, the results for the chromatographic logP in data set [2] (setting [7]) and in data set [2] (setting [8]) were 1.27 and 4.12, respectively.
